Experimental findings from US20040162345A1, “Compounds with NEP/MP-inhibitory activity and uses thereof” (Solvay Pharmaceuticals GmbH, priority 2001, published 2004) are described below.

For assay [1], the target named is T1, His6-tagged IGS5 ectodomain (Homo sapiens, UniProt Q495T6).
T1 construct: Enzyme: IGS-5 (sol hu)(his)6; or: His6-tagged IGS5 ectodomain;; made in house; host or cells: Sf9 insect cells, recombinant baculovirus IGBV73, purified from culture supernatant
T1 sequence (Q495T6 49-779 limits assumed): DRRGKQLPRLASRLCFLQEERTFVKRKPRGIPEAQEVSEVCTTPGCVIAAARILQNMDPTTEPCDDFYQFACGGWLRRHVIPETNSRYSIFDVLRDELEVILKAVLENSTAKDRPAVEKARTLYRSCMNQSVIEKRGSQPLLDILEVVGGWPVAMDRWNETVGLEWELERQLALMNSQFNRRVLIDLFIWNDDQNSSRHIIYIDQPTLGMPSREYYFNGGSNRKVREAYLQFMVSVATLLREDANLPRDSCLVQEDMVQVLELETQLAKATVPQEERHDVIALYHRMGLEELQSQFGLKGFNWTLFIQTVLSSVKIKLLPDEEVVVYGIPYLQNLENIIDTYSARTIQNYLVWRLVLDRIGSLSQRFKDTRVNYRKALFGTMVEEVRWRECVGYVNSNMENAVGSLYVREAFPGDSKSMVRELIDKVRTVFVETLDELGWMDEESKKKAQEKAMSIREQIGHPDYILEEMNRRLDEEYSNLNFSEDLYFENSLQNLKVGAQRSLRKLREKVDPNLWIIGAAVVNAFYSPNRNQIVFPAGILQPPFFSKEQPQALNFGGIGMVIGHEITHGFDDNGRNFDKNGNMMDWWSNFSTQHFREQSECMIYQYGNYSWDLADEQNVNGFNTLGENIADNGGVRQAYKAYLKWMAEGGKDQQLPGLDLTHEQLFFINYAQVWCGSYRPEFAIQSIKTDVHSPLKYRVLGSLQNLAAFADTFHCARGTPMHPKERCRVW
The assay is described as follows: IGS5 enzyme inhibition assay (fluorescence-quenched big-ET-1 analog, HPLC). Format: biochemical. The following applies: for IC50: conversion of labeled fluorescent big-ET-1 analog. The procedure: The enzymatic activity of IGS5 polypeptides of the invention was tested with regard to the metabolism of biologically active peptides. In particular it was tested whether these IGS5 polypeptides may act on a variety of vasoactive peptides known in the state of the art e.g. such like atrial natriuretic peptide (ANP), bradykinin, big-endothelin (big-ET-1), endothelin (ET-1), substance P and angiotensin-1. In the context of the present invention in particular it was tested whether the IGS5 ectodomain, which is a novel human metalloprotease, hydrolyzes said vasoactive peptides. For comparison the assay was also performed for a known member of the metalloprotease family which was described earlier as soluble secreted endopeptidase (SEP) by Emoto et al. (J. Biol. Chem., Vol. 274 (1999): pp. 32469-32477). Furthermore, it was tested whether the activity of IGS5 to convert a big-ET-1 analog (the so-called 17 aa big-ET-1) may be inhibited by reference compounds that are used to determine the inhibition properties with regard to enzymes having ECE and/or NEP-characteristics.
Enzyme: IGS-5 (sol hu)(his)6; or: His6-tagged IGS5 ectodomain;
stock solution: 53 μg/ml in 20 mM HEPES pH 7.2, 5% glycerol, 0.005% Tween20, 100 mM NaCl, purity >99%; storage at 4° C.
working solution: stock solution diluted with assay buffer to 10 μg/ml.
Substrate: Mca-Asp-Ile-Ala-Trp-Phe-Dpa-[…]COOH;
Fluorescence-quenched big-ET-1 analog;
Assay buffer: 100 mM Tris pH 7.0, 250 mM NaCl.
All test compounds were dissolved in DMSO at 10 mM and were further diluted with assay buffer.
A quantity of 70 μl of the assay buffer, of 10 μl enzyme working solution and of 10 μl test compound solution were mixed in an Eppendorf vial and preincubated at 37° C. for 15 minutes. Then, 10 μl substrate stock solution was added and the reaction mixture was incubated at 37° C. for 60 minutes to allow for enzymatic hydrolysis. Subsequently the enzymatic reaction was terminated by heating at 95° C. for 5 minutes. After centrifugation (Heraeus Biofuge B, 3 min) the supernatant was subjected to HPLC analysis.
In order to separate the remaining substrate from the cleavage products reversed phase HPLC technique was used with a CC 125/4 Nucleosil 300/5 C18 RP column and a CC 8/4 Nucleosil 100/5 C18 precolumn (commercially available from Macherey-Nagel, Düren, Germany). Thus, 60 μl of the reaction samples obtained in Example 7b were injected into the HPLC, and the column was eluted at a flow rate of 1 ml/min by applying the following gradient and solutions: […]
The increasing fluorescence signal of the HPLC-peak of the peptide with the unquenched Mca-fluorophor after hydrolysis was taken as the basis for any calculation.
This signal was compared for the samples with and without inhibitor and % inhibition was calculated on basis of the respective peak areas.
% inhib=100*(1−Ainhib/Acontrol)
All samples were run in duplicate and mean values were used.
(§1) Furthermore, the potency of metalloprotease inhibitor compounds and reference compounds to suppress the conversion of big-ET to ET-1 was examined as described in this example 7, using a labeled fluorescent big-ET-1 analog. The procedures applied in the enzyme assays are described above in the examples 4 with regard to IGS5, in example 5 with regard to NEP, and in example 6 with regard to ECE.

For assay [2], the target named is Neutral endopeptidase (E.C. 3.4.24.11) (Sus scrofa, UniProt A0A4X1SQE6). In words: NEP enzyme inhibition assay (methionin-enkephalin substrate, HPLC). Format: biochemical, pig. The procedure: Neutral endopeptidase (E.C. 3.4.24.11) was prepared from pig kidney cortex according to the method of Gee et al. (Biochem J 1985 May 15;228(1):119-26) and purified as reported by Relton et al. (Biochem J 1983 Dec. 1;215(3):519-23). For the enzyme inhibition assay 10 ng of the purified enzyme, 20 μM substrate (methionin-enkephalin) and various inhibitor concentrations were used. The assay buffer was 50 mM Tris-(hydroxymethyl)-aminomethan/HCl pH 7.4, the total assay volume was 100 μl. After a preincubation period of 5 min of enzyme and inhibitor, the substrate was added and subsequently a second incubation phase for enzyme induced substrate hydrolysis at 37° C. for 30 min was initiated. The enzymatic reaction was stopped by heating at 95° C. for 5 min. After centrifugation the supernatant was subjected to HPLC. The products of enzymatic substrate hydrolysis were separated from the native substrate by HPLC technique and the inhibitor potency calculated by comparing the peak areas of the products with the peak area of native substrate for both, the samples with and without inhibitor (control). Blanks without enzyme, controls without inhibitor, samples with inhibitor solvent instead of the inhibitor and samples with a standard inhibitor were added to each assay run.
Chain of Neutral endopeptidase (E.C. 3.4.24.11) (A0A4X1SQE6 entry or part of it): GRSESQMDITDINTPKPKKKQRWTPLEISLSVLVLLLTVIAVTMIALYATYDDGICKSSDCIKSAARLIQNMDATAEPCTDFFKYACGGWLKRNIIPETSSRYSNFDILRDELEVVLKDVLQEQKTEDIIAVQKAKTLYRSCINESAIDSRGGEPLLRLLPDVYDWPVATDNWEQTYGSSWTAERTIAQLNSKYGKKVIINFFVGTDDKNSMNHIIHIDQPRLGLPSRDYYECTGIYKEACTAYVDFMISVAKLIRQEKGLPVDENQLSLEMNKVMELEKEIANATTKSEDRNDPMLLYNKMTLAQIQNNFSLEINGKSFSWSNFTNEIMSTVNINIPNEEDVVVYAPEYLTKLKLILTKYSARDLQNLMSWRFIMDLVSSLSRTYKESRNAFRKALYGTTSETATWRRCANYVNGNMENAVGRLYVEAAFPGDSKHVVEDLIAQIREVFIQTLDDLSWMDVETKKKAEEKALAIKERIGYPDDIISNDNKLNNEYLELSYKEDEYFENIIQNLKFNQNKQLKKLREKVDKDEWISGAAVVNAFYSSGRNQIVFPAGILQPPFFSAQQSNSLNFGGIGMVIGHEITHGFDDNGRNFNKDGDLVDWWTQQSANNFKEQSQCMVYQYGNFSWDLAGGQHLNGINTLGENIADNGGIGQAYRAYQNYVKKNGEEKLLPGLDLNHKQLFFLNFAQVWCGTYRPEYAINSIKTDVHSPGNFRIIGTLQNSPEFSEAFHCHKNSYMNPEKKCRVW
as §1

The target of assay [3] is T2, Recombinant human COOH-terminal His6-tagged endothelin converting enzyme-1 (Homo sapiens, UniProt P42892).
T2 construct: His6 (C); purchased Innogenetics, Ghent, Belgium; host or cells: Sf9 cells
T2 sequence (P42892 1-770): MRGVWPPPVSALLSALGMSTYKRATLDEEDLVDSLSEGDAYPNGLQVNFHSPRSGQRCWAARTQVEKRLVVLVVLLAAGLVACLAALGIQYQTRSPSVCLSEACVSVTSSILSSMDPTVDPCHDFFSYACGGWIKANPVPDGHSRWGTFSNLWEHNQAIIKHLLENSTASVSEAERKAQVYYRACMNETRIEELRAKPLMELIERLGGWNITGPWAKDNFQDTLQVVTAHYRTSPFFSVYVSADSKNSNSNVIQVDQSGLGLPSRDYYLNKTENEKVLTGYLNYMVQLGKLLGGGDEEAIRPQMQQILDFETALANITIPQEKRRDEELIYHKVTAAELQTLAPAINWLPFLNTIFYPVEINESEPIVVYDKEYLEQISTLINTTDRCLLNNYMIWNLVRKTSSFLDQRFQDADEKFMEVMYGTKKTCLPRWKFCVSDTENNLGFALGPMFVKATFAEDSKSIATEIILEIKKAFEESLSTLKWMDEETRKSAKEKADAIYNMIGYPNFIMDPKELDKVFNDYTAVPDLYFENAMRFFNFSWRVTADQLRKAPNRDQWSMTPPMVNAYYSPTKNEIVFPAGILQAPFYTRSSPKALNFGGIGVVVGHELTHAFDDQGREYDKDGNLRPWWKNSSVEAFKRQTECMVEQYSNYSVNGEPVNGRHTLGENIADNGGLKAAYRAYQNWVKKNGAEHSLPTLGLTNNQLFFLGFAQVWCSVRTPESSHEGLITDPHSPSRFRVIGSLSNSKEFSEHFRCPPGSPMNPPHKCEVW
In words: ECE enzyme inhibition assay (17 amino acid truncated big endothelin-1, HPLC). It is filed as biochemical.
Method: The enzyme inhibition assay comprised enzyme (2.8 μg), 5 μg substrate (moderately modified 17 amino acid truncated big endothelin-1), inhibitor at various final concentrations and 100 mM Tris-buffer (Tris-hydroxymethl-aminomethan/HCl, pH 7.0+150 mM NaCl) in a final volume of 100 μl. Pre-incubation of enzyme with inhibitor for 15 min at 37° C. was performed before substrate addition and incubation (60 min at 37° C.) for enzymatic hydrolysis. The enzymatic reaction was stopped by heating at 95° C. for 5 min. After centrifugation the supernatant was subjected to HPLC for separation of enzymatic hydrolysis products from undegraded substrate. % inhibition was calculated on the basis of peak areas for products and uncleaved substrate for the inhibited reaction in comparison to the control (without inhibitor). Blanks without enzyme, controls without inhibitor, samples with inhibitor solvent instead of the inhibitor and samples with a standard inhibitor were added to each assay run.

The subject of another assay is healthy volunteers. The assay is described as follows: Double-blind placebo-controlled clinical study, big-ET-induced pressure response. It is filed as in vivo, human. The following applies: thirteen healthy volunteers. The procedure: (§2) To proof the concept of clinical efficacy and safety of compound Ia-2 in man, 6 clinical trials were conducted in healthy volunteers and 2 proof of concept trials were conducted in patients: One randomized, placebo-controlled double-blind trial in patients with hypertension (N=191) and one open, baseline controlled pilot trial in patients with congestive heart failure (N=29). […] In the Intent-to-treat patient population (ITT), office diastolic blood pressure versus placebo decreased by −6.9 mmHg (last value under treatment; p<0.001) and office systolic blood pressure versus placebo decreased by −9.2 mmHg (last value under treatment; p=0.003) at the highest dose investigated (200 mg bid).

Assay [4] relates to patients with congestive heart failure. In words: Open, baseline controlled pilot trial in patients with congestive heart failure. Format: in vivo, human. The protocol: as §2
Assay [5] relates to patients with WHO grade I-II hypertension. The assay is described as follows: Randomized, placebo-controlled double-blind 4-week trial in patients with hypertension. Format: in vivo, human. The following applies: 200 mg bid, ITT, last value under treatment. The procedure: as §2
A further assay relates to volunteers and patients. In words: Clinical trials, plasma ANP and cGMP following oral dosing. Format: in vivo, human. The protocol: as §2

Entries after “also recorded” stand apart in the source; their conditions may differ. Where two headings read alike, the source gives them in different places.

Regarding `O=C(O)C(Cc1ccc2c(c1)oc1ccccc12)NCP(=O)(O)O` (centres unmarked) [CGS-35066], in assay [1], the “inhibition of IGS5 activity (in words)” value is listed as “Inhibition of IGS5 could be observed at higher concentrations only”. The IC50 in assay [1] worked out at 1300 nM; in assay [2] (20 μM methionin-enkephalin, read-out: NEP IC50), 42 nM; in assay [3], 5 nM.
Take `O=C(O)CNC(=O)C(CS)Cc1ccccc1` (centres unmarked) [Thiorphan]: in assay [1], the “inhibition of IGS5 activity (in words)” value is on record as “no inhibition of IGS5; also recorded: do not affect the activity of IGS5”. The results for the IC50 in assay [1], in assay [2] and in assay [3] were over 1000 nM, 2.4 nM and over 10000 nM, respectively.
As to `CCOC(=O)[C@H](CCc1ccccc1)CC1(C(=O)N[C@H]2CCc3ccccc3N(CC(=O)O)C2=O)CCCC1` [compound Ia-2, (3S,2′R)-3-{1-[2′-(ethoxycarbonyl)-4′-phenylbutyl]-cyclopentane-1-carbonylamino}-2,3,4,5-tetrahydro-2-oxo-1H-1-benzazepine-1-acetic acid], the IC50 in assay [1] was found to be 1.2 nM. Also, the ANP levels result in the assay with healthy volunteers is reported as “clear dose related increase”. Further, the ET-1 levels result with healthy volunteers was “did not increase”. The big-ET levels result in the assay on healthy volunteers (compared to placebo group) is recorded as “increased dose dependently”. The big-ET-induced pressure response result with healthy volunteers (versus placebo) is “dose-dependently inhibited”. Also, the “change of plasma big-ET from baseline” value in assay [4] (200 mg) is reported as “+32.6%”; in assay [4] (400 mg) it was “+56%”. Besides, the “plasma levels of big-ET following administration” value in assay [4] (200 mg, baseline 4.9 fmol/ml) came to 6.5 fmol/mL; in assay [4] (400 mg, baseline 2.3 fmol/ml) it was 3.5 fmol/mL. For the same compound, in assay [5] (p<0.001), the “office diastolic blood pressure versus placebo” value is recorded as −6.9 mmHg. The “office systolic blood pressure versus placebo” value in assay [5] (p=0.003) is reported as −9.2 mmHg. In the assay on volunteers and patients, the “plasma concentrations of ANP and its second messenger cGMP” value is “significantly increased and sustained”.
